Test results as given in PubChem BioAssay AID330 (DTP/NCI, 2004).
Several values for one entry are separate records, joined by “and”; a condition that tells them apart may be missing. Identical values can stand only once. Toxic doses and inconclusive results are not listed. The calls were made as follows: active = survival T/C of 150% or more; inactive = T/C below 125% in these data.

Test system: P388 leukemia ip, CD2F1 mice, survival T/C
Experiment: NCI In Vivo Anticancer Drug Screen. Data for tumor model P388 Leukemia (intraperitoneal) in CD2F1 (CDF1) mice
Details: endpoint: median survival time, higher = longer survival
Procedure, shortened: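 Mice carrying the transplanted tumor received test compound or vehicle. Survival was recorded in each group, and the value is the treated-group measurement divided by that of the vehicle-treated control group.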

[1] = dose: 50.0 mg/kg/injection, schedule: Q01DX005 (ip), vehicle: Klucel (hydroxypropylcellulose) (HPC)
[2] = dose: 100.0 mg/kg/injection, schedule: Q01DX005 (ip), vehicle: Klucel (hydroxypropylcellulose) (HPC)
[3] = dose: 25.0 mg/kg/injection, schedule: Q01DX005 (ip), vehicle: Klucel (hydroxypropylcellulose) (HPC)
[4] = dose: 50.0 mg/kg/injection, schedule: Q01DX009 (ip), vehicle: saline with Tween-80
[5] = dose: 100.0 mg/kg/injection, schedule: Q01DX009 (ip), vehicle: saline with Tween-80
[6] = dose: 200.0 mg/kg/injection, schedule: Q01DX009 (ip), vehicle: saline with Tween-80

Measured: T/C

COc1cc(NC(C)=O)c(OC)c2c(Cl)ccnc12
inactive: dose: 100.0 mg/kg/injection, schedule: Q01DX001 (ip), vehicle: acid diluted with saline 101 % of control | dose: 200.0 mg/kg/injection, schedule: Q01DX001 (ip), vehicle: acid diluted with saline 99 % of control

O=c1c2ccccc2n2nc3ccccc3c2n1-c1ccccc1
inactive: dose: 93.25 mg/kg/injection, schedule: Q04DX002 (ip), vehicle: Klucel (hydroxypropylcellulose) (HPC) 104 % of control | dose: 186.5 mg/kg/injection, schedule: Q04DX002 (ip), vehicle: Klucel (hydroxypropylcellulose) (HPC) 98 % of control | dose: 373.0 mg/kg/injection, schedule: Q04DX002 (ip), vehicle: Klucel (hydroxypropylcellulose) (HPC) 95 % of control

CCOC(=O)C1=C(c2ccccc2)OC(N)=C(C#N)C1c1ccccc1Cl (centres undefined)
inactive: [1] 96 % of control | [2] 105 % of control | dose: 200.0 mg/kg/injection, schedule: Q01DX005 (ip), vehicle: Klucel (hydroxypropylcellulose) (HPC) 107 % of control

CC(=O)C(CCCn1c(=O)c2c(ncn2C)n(C)c1=O)C(C)=O
inactive: [3] 102 % of control | [1] 105 % of control | [2] 98 % of control

ON=C(C1CC1)C1CC1
inactive: dose: 25.0 mg/kg/injection, schedule: Q01DX009 (ip), vehicle: saline with Tween-80 95 % of control | [4] 101 % of control | [5] 104 % of control | [6] 91 % of control

C(=NCCSSCCN=Cc1ccccc1)c1ccccc1
inactive: dose: 60.0 mg/kg/injection, schedule: Q01DX005 (ip), vehicle: saline with Tween-80 93 % of control | dose: 120.0 mg/kg/injection, schedule: Q01DX005 (ip), vehicle: saline with Tween-80 93 % of control | dose: 240.0 mg/kg/injection, schedule: Q01DX005 (ip), vehicle: saline with Tween-80 103 % of control

COC(=O)C12N=NN(c3ccccc3)C1(C(=O)OC)C1CCC2C1 (centres undefined)
inactive: [5] 95 % of control | [6] 100 % of control | dose: 400.0 mg/kg/injection, schedule: Q01DX009 (ip), vehicle: saline with Tween-80 90 % of control

O=C(C(Br)C(Br)c1ccccc1)C(Br)C(Br)c1ccccc1 (centres undefined)
inactive: dose: 100.0 mg/kg/injection, schedule: Q04DX003 (ip), vehicle: saline sonified 104 % of control | dose: 200.0 mg/kg/injection, schedule: Q04DX003 (ip), vehicle: saline sonified 100 % of control | dose: 400.0 mg/kg/injection, schedule: Q04DX003 (ip), vehicle: saline sonified 95 % of control

C[N+]12CCC34C5=CC(=O)C(=O)C=C5[N+]5(C)C(=O)CC6OCC=C(C1)C(CC32)C6C45 (centres undefined)
inactive: dose: 7.5 mg/kg/injection, schedule: Q01DX005 (ip), vehicle: saline 102 % of control | dose: 15.0 mg/kg/injection, schedule: Q01DX005 (ip), vehicle: saline 104 % of control | dose: 30.0 mg/kg/injection, schedule: Q01DX005 (ip), vehicle: saline 97 % of control

Cn1c(N)c(N=Nc2ccccc2Cl)c(=O)n(C)c1=O
inactive: [4] 104 % of control | [5] 99 % of control | [6] 95 % of control

NC(=O)C1=C2NC(=O)c3ccccc3C2C2=C1CCCC2 (centres undefined)
inactive: dose: 12.5 mg/kg/injection, schedule: Q01DX005 (ip), vehicle: Klucel (hydroxypropylcellulose) (HPC) 90 % of control | [3] 92 % of control | [1] 98 % of control and 105 % of control

NNc1cnc2ccccc2n1
inactive: dose: 1.88 mg/kg/injection, schedule: Q01DX009 (ip), vehicle: suspension in saline 93 % of control | dose: 18.8 mg/kg/injection, schedule: Q04DX003 (ip), vehicle: saline 101 % of control and 106 % of control | dose: 37.5 mg/kg/injection, schedule: Q01DX009 (ip), vehicle: suspension in saline 95 % of control | dose: 37.5 mg/kg/injection, schedule: Q04DX003 (ip), vehicle: saline 100 % of control and 103 % of control | dose: 75.0 mg/kg/injection, schedule: Q01DX009 (ip), vehicle: suspension in saline 90 % of control | dose: 75.0 mg/kg/injection, schedule: Q04DX003 (ip), vehicle: saline 100 % of control and 107 % of control
